Assay results as given in patent US20030207819A1, “Compositions and methods for treating inflammatory connective tissue diseases” (priority 2002, published 2003).

How the values were obtained:
Assay type in all cases: in vivo, human
[1] = system: patient with undifferentiated connective tissue disease; assay: Example 2: clarithromycin re-challenge of Example 1 patient, symptoms and laboratory assessments
Experimental: Subsequent to the observations made in Example 1, the patient was re-challenged with clarithromycin, and re-evaluated as to symptomatic efficiency. In parallel with clinical observations, laboratory assessments including erythrocyte sedimentation rate, C-reactive protein, and serum interleukins 1 and 6 were measured. The laboratory results are illustrated in Table 1.
On Jul. 29, 2002 the clarithromycin treatment of the patient from Example 1 was discontinued (Table 1). Their additional medications included: ZESTRIL® (Astra Zenica) at 1 mg/t.i.d., CALTRATE® with Vitamin D (Wyeth)/b.i.d., UNITHROID™ (Jerome Stevens Pharmaceuticals, Inc.) at 0.05 mg/day, TROZODONE® (Watson Laboratories, Inc.) at 50 mg/h.s., TYLENOL® (McNeil Consumer Brands) at 1 gm/p.r.n., multi-vitamins/p.r.n., iron tablets, quinine at 260 mg, and non-specific herbs. […] When the patient was observed on Aug. […] The symptoms were sufficiently severe that they asked to be restarted on clarithromycin. When observed on Aug. 15, 2002, they stated they had become “100% better” by Aug. 11, 2002. The patient was continued on clarithromycin at 500 mg b.i.d. and observed serially at weekly intervals on Aug. 22, 2002, Aug. 27, 2002, and Sep. 5, 2002.
These findings are similar to their clinical history over the past several years with respect to clarithromycin therapy and response of connective tissue symptoms.

[2] = system: patient with low-grade connective tissue symptoms; assay: Example 5: clarithromycin study, VAS and joint assessment
Text: In 1991, it was elected to begin the patient on hydroxychloroquine ([…]®, Sanofi-Synthelabo, Inc.) given their low-grade connective tissue symptoms not responding to non-steroidal anti-inflammatory therapy. […] A trial of hydroxychloroquine was again initiated to see how they would tolerate it. […] Hydroxychloroquine was discontinued when they wanted to attempt getting pregnant again. Therapy most recently consisted of non-steroidal inflammatory agents and physical therapy.
On Feb. 27, 2003, the patient agreed to participate in the clarithromycin study. […] The patient was begun on clarithromycin (BIAXIN®, Abbott Laboratories) 500 mg twice per day.

[3] = system: patient with undifferentiated connective tissue disease; assay: Example 6: clarithromycin trial, VAS and joint assessment; conditions: for Patient VAS (Pain): baseline 89; for Practitioner VAS (Global): baseline 60; for Patient VAS (Global): baseline 63
Text: A patient, was first seen in September 1999. […] They have used a number of anti-inflammatory agents frequently for therapy.
On the basis of the findings, including recurrent episodes of arthritis, Raynaud's, and thickening of the hands, connective tissue disease diagnoses such as Mixed Connective Tissue Disease or Progressive Systemic Sclerosis were considered.
Based on these findings, a diagnosis of Undifferentiated Connective Tissue Disease was made. Therapy was initiated with hydroxychloroquine ([…]®, Sanofi-Synthelabo, Inc.) and a non-steroidal anti-inflammatory agent. They utilized steroid dose packs periodically for symptomatic relief of their peripheral symptoms as well as their neck symptoms.
On examination, they had symptoms and findings much as before and a diagnosis of Undifferentiated Connective Tissue Disease was made. The patient agreed to undergo a trial with clarithromycin.
Following screening and baseline evaluations, the patient was begun on clarithromycin (BIAXIN®, Abbott Laboratories).
25, 2003 (“Visit 3”), for their first recheck visit.
When seen for their one month evaluation, the patient had been off steroid medication for approximately ten days.
Further assessment of their status was made on Apr. 13, 2003 at which time they were now off steroids for almost a one-month period.
Patient was again seen Apr. 21, 2003 (“Visit Four”), for their formal two-month follow-up on clarithromycin.

[4] = Aug. 8, 2002, 10 days off clarithromycin
[5] = Aug. 15, 2002, clarithromycin restarted
[6] = Aug. 22, 2002, on clarithromycin
[7] = Aug. 27, 2002, on clarithromycin
[8] = Jul. 29, 2002, on clarithromycin 500 mg BID
[9] = Sep. 5, 2002, on clarithromycin
[10] = Visit Three, clarithromycin for one month
[11] = Visit Three, clarithromycin for one month, baseline 3
[12] = Visit Four, Apr. 21, 2003, clarithromycin for two months
[13] = Visit Four, clarithromycin for two months

Q: How did the ESR [1, 4] turn out when `CC[C@H]1OC(=O)[C@H](C)[C@@H](O[C@H]2C[C@@](C)(OC)[C@@H](O)[C@H](C)O2)[C@H](C)[C@@H](O[C@@H]2O[C@H](C)C[C@H](N(C)C)[C@H]2O)[C@](C)(OC)C[C@@H](C)C(=O)[C@H](C)[C@@H](O)[C@]1(C)O` [clarithromycin, 6-O-methylerythromycin] was run?
A: Its ESR is 25 mm/hr.

Q: What about the IL-6 [1, 4] of the same compound?
A: Its IL-6 is 2.1 pg/mL.

Q: What about the Symptoms [1, 4] of the same compound?
A: The Symptoms was “generalized joint pain, associated with swelling”.

Q: What about the Symptoms ([1]; Aug. 15, 2002, clarithromycin 500 mg b.i.d. restarted, better on Aug. 11, 2002) of the same compound?
A: The Symptoms was 100% better.

Q: And the CPR [1, 5]?
A: The CPR was less than 0.3 mg/dL.

Q: And the ESR [1, 5]?
A: Its ESR is 21 mm/hr.

Q: And the IL-6 [1, 5]?
A: Its IL-6 is 0.9 pg/mL.

Q: What about the CPR [1, 6] of the same compound?
A: The CPR was less than 0.3 mg/dL.

Q: And the ESR [1, 6]?
A: The ESR was 34 mm/hr.

Q: And the IL-6 [1, 6]?
A: Its IL-6 is 0.7 pg/mL.

Q: And the Symptoms ([1]; Aug. 22, 2002, on clarithromycin 500 mg b.i.d.)?
A: Its Symptoms is “Doing well”.

Q: What about the CPR [1, 7] of the same compound?
A: Its CPR is less than 0.3 mg/dL.

Q: What about the ESR [1, 7] of the same compound?
A: The ESR was 21 mm/hr.

Q: What about the IL-6 [1, 7] of the same compound?
A: Its IL-6 is 1.1 pg/mL.

Q: And the Symptoms ([1]; Aug. 27, 2002, on clarithromycin 500 mg b.i.d.)?
A: The Symptoms was “Doing well”.

Q: And the CPR [1, 8]?
A: The CPR was less than 0.3 mg/dL.

Q: What about the ESR [1, 8] of the same compound?
A: The ESR was 29 mm/hr.

Q: And the Symptoms ([1]; Jul. 29, 2002, on clarithromycin 500 mg po BID, discontinued at this visit)?
A: The Symptoms was “Good Control”.

Q: And the CPR [1, 9]?
A: Its CPR is less than 0.3 mg/dL.

Q: What about the ESR [1, 9] of the same compound?
A: Its ESR is 34 mm/hr.

Q: What about the IL-6 [1, 9] of the same compound?
A: The IL-6 was 1 pg/mL.

Q: And the Symptoms ([1]; Sep. 5, 2002, on clarithromycin 500 mg b.i.d.)?
A: The Symptoms was “Doing well”.

Q: What about the “change in ESR, CRP, Interleukin-1, or Interleukin-6” value ([1]; over the re-challenge Jul. 29 to Sep. 5, 2002) of the same compound?
A: Its value is “no significant change”.

Q: And the “Patient VAS (Pain)” value ([2]; Visit Three, Apr. 2, 2003, clarithromycin 500 mg twice per day for one month, VAS 0 to 100 mm, baseline 67)?
A: The value was 26 mm.

Q: And the “joint pain, patient statement” value ([2]; Visit Three, clarithromycin 500 mg twice per day)?
A: Its value is “became better pretty much right away”.

Q: And the “joint tenderness and swelling on physical examination” value [2, 10]?
A: The value was “decreased joint tenderness and swelling”.

Q: And the “Tender/Painful Joints” value [2, 11]?
A: The value was 0.

Q: And the “Swollen Joints” value ([2]; Visit Three, clarithromycin for one month, baseline 6)?
A: The value was 1.

Q: And the “Patient VAS (Global)” value ([2]; Visit Three, clarithromycin for one month, baseline 30)?
A: Its value is 12 mm.

Q: What about the “Practitioner VAS (Global)” value ([2]; Visit Three, clarithromycin for one month, baseline 54) of the same compound?
A: The value was 25 mm.

Q: And the side reaction ([2]; clarithromycin 500 mg twice per day, one month)?
A: The side reaction was “metallic taste”.

Q: And the side reaction ([3]; Apr. 13, 2003, on clarithromycin)?
A: Its side reaction is “bad taste”.

Q: And the “pain VAS, patient rating” value ([3]; Apr. 13, 2003, on clarithromycin, off steroids almost one month)?
A: Its value is 25 mm.

Q: What about the “patient statement of improvement” value [3, 12] of the same compound?
A: The value was 80% better.

Q: And the side reaction [3, 12]?
A: Its side reaction is “mild bad taste”.

Q: What about the “Patient VAS (Pain)” value [3, 12] of the same compound?
A: The value was 11 mm.

Q: And the “Practitioner VAS (Global)” value [3, 13]?
A: The value was 4 mm.

Q: What about the “Patient VAS (Global)” value [3, 13] of the same compound?
A: The value was 14 mm.

Q: What about the “Patient VAS (Pain)” value ([3]; Visit Three, Mar. 25, 2003, clarithromycin for one month, off steroid about ten days) of the same compound?
A: The value was 16 mm.

Q: What about the “Tender/Painful Joints” value [3, 11] of the same compound?
A: The value was 0.

Q: What about the “Practitioner VAS (Global)” value [3, 10] of the same compound?
A: Its value is 31 mm.

Q: What about the “Patient VAS (Global)” value [3, 10] of the same compound?
A: Its value is 51 mm.
